# Source: US9790178B2, “Pyrrolidinyl urea, thiourea, guanidine and cyanoguanidine compounds as TrkA kinase inhibitors” (Array BioPharma Inc., priority 2012, dated 2017)
# Columns and labels:
# Assay in all cases: KinaseProfiler off-target kinase profiling
# Format in all cases: biochemical
# Settings in all cases: 10 μM, ATP near Km
# [1] = target: T1, MSK1 (Homo sapiens, UniProt O75582)
# T1 construct: purchased Millipore, Inc. (KinaseProfiler service)
# Protocol: (§1) A representative compound of the invention (Example 20) was tested for off-target kinase activity at a concentration of 10 μM by Millipore, Inc. in their KinaseProfiler™ service against all the kinases available in their full kinase panel. The compound was run in duplicate at a concentration of ATP near the Km for each individual kinase according to Millipore's specifications. The results are shown in Table B. Data are reported as percent of control (POC) and are the average of the two replicates.
# [2] = target: T2, NEK3 (Homo sapiens, UniProt P51956)
# T2 construct: purchased Millipore, Inc. (KinaseProfiler service)
# Protocol: as §1
# [3] = target: T3, MRCKbeta (Homo sapiens, UniProt Q9Y5S2)
# T3 construct: purchased Millipore, Inc. (KinaseProfiler service)
# Protocol: as §1
# [4] = target: T4, EphA1 (Homo sapiens, UniProt P21709)
# T4 construct: purchased Millipore, Inc. (KinaseProfiler service)
# Protocol: as §1
# [5] = target: T5, NEK11 (Homo sapiens, UniProt Q8NG66)
# T5 construct: purchased Millipore, Inc. (KinaseProfiler service)
# Protocol: as §1
# [6] = target: T6, TAO2 (Homo sapiens, UniProt Q9UL54)
# T6 construct: purchased Millipore, Inc. (KinaseProfiler service)
# Protocol: as §1
# [7] = target: T7, CK2alpha2 (Homo sapiens, UniProt P19784)
# T7 construct: purchased Millipore, Inc. (KinaseProfiler service)
# Protocol: as §1
# [8] = target: T8, CSK (Homo sapiens, UniProt P41240)
# T8 construct: purchased Millipore, Inc. (KinaseProfiler service)
# Protocol: as §1
# [9] = target: T9, LKB1 (Homo sapiens, UniProt Q15831)
# T9 construct: purchased Millipore, Inc. (KinaseProfiler service)
# Protocol: as §1
# [10] = target: T10, SGK3 (Homo sapiens, UniProt Q96BR1)
# T10 construct: purchased Millipore, Inc. (KinaseProfiler service)
# Protocol: as §1
# [11] = target: T11, Rsk4 (Homo sapiens, UniProt Q9UK32)
# T11 construct: purchased Millipore, Inc. (KinaseProfiler service)
# T11 sequence (Q9UK32 whole entry): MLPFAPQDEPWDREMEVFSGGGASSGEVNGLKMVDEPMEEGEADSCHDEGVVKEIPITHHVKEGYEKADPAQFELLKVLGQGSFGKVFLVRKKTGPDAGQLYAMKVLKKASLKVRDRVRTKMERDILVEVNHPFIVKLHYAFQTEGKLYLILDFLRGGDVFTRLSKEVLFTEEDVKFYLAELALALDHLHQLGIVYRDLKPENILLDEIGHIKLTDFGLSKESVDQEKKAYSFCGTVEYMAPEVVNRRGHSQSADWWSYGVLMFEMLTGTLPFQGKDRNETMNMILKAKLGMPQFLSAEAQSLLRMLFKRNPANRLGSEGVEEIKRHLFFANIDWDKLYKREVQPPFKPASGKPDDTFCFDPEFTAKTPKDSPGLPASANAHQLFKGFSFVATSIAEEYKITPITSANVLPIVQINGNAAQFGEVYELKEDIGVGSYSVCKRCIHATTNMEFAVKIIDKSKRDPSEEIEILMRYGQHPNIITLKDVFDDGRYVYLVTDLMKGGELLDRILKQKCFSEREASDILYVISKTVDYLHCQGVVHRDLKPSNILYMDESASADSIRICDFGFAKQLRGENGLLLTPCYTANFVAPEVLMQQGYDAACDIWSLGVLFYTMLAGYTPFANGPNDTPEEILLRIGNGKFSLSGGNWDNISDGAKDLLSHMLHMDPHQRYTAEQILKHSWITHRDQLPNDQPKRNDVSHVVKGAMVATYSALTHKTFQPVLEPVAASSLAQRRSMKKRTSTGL
# Protocol: as §1
# [12] = target: T12, MAPKAP-K5 (Homo sapiens, UniProt Q8IW41)
# T12 construct: purchased Millipore, Inc. (KinaseProfiler service)
# Protocol: as §1
# [13] = target: T13, NLK (Homo sapiens, UniProt Q9UBE8)
# T13 construct: purchased Millipore, Inc. (KinaseProfiler service)
# Protocol: as §1
# [14] = target: T14, HIPK1 (Homo sapiens, UniProt Q86Z02)
# T14 construct: purchased Millipore, Inc. (KinaseProfiler service)
# Protocol: as §1
# [15] = target: T15, PAK4 (Homo sapiens, UniProt O96013)
# T15 construct: purchased Millipore, Inc. (KinaseProfiler service)
# T15 sequence (O96013 whole entry): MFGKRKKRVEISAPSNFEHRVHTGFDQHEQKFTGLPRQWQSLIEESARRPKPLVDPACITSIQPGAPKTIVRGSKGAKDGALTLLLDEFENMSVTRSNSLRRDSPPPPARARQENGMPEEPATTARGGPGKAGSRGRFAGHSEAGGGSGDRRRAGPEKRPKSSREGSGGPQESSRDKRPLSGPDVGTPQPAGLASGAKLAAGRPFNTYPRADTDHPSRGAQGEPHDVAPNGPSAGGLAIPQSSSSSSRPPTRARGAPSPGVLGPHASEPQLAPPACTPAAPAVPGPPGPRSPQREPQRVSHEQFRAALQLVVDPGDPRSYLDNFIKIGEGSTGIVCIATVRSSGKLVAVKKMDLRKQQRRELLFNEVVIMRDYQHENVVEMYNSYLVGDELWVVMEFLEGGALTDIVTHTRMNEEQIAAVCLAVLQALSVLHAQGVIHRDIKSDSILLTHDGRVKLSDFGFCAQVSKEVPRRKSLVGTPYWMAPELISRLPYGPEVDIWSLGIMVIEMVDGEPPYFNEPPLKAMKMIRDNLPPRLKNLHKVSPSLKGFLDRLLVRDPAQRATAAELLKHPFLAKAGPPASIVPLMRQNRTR
# Protocol: as §1
# [16] = target: T16, CDK1/cyclinB (Homo sapiens, UniProt P06493)
# T16 construct: purchased Millipore, Inc. (KinaseProfiler service)
# T16 sequence (P06493 whole entry): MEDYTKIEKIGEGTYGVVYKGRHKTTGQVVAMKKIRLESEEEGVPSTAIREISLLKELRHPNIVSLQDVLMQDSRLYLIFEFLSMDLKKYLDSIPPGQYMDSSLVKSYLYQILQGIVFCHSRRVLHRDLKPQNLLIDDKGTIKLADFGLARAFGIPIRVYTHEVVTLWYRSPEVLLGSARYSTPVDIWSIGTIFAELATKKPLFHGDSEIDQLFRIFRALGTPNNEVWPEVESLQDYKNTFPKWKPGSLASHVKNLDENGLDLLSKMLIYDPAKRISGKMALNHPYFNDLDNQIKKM
# T16 sequence (P14635 whole entry partner): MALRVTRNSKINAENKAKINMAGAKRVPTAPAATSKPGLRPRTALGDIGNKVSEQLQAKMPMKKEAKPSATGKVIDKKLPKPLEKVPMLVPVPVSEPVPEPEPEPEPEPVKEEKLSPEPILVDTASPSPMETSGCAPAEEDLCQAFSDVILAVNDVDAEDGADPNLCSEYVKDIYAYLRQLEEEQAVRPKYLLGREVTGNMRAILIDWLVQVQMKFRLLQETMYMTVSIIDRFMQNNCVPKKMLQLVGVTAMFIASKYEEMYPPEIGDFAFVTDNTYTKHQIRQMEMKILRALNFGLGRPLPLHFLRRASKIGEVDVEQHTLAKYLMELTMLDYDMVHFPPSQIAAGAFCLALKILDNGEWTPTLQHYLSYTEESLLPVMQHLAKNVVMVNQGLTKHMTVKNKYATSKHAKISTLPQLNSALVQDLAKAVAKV
# Protocol: as §1
# [17] = target: T17, PKCmu (Homo sapiens, UniProt Q15139)
# T17 construct: purchased Millipore (KinaseProfiler service)
# Protocol: as §1
# [18] = target: T18, CDK7/cyclinH/MAT1 (Homo sapiens, UniProt P50613)
# T18 construct: purchased Millipore, Inc. (KinaseProfiler service)
# Protocol: as §1
# [19] = target: T19, MARK2 (Homo sapiens, UniProt Q7KZI7)
# T19 construct: purchased Millipore, Inc. (KinaseProfiler service)
# Protocol: as §1
# [20] = target: T20, EGFR (Homo sapiens, UniProt P00533)
# T20 construct: purchased Millipore, Inc. (KinaseProfiler service)
# Protocol: as §1
# [21] = target: T21, DAPK3 (Homo sapiens, UniProt O43293)
# T21 construct: purchased Millipore, Inc. (KinaseProfiler service)
# T21 sequence (O43293 whole entry): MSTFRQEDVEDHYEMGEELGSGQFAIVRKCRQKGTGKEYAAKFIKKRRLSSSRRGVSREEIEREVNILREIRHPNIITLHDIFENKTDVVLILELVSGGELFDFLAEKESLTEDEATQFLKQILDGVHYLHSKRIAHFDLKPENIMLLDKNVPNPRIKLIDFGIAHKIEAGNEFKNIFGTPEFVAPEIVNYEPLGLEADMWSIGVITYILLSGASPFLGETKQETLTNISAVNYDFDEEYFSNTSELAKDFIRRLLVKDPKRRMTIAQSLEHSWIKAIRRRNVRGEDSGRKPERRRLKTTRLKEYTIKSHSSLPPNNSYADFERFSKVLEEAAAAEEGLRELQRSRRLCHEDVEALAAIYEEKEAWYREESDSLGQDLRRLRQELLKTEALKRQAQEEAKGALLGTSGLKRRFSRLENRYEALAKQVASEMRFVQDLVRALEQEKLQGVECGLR
# Protocol: as §1
# [22] = target: T22, CDK6/cyclinD3 (Homo sapiens, UniProt Q00534)
# T22 construct: purchased Millipore, Inc. (KinaseProfiler service)
# Protocol: as §1
# [23] = target: T23, JAK2 (Homo sapiens, UniProt O60674)
# T23 construct: purchased Millipore, Inc. (KinaseProfiler service)
# Protocol: as §1
# [24] = target: T24, MST3 (Homo sapiens, UniProt Q9Y6E0)
# T24 construct: purchased Millipore, Inc. (KinaseProfiler service)
# Protocol: as §1
# [25] = target: T25, CK1delta (Homo sapiens, UniProt P48730)
# T25 construct: purchased Millipore, Inc. (KinaseProfiler service)
# Protocol: as §1
# [26] = target: T26, CHK1 (Homo sapiens, UniProt O14757)
# T26 construct: purchased Millipore, Inc. (KinaseProfiler service)
# Protocol: as §1
# [27] = target: T27, PKCdelta (Homo sapiens, UniProt Q05655)
# T27 construct: purchased Millipore, Inc. (KinaseProfiler service)
# Protocol: as §1
# [28] = target: T28, TEC Activated (Homo sapiens, UniProt P42680)
# T28 construct: purchased Millipore, Inc. (KinaseProfiler service)
# Protocol: as §1
# [29] = target: T29, p70S6K (Homo sapiens, UniProt P23443)
# T29 construct: purchased Millipore, Inc. (KinaseProfiler service)
# Protocol: as §1
# [30] = target: T30, Ros (Homo sapiens, UniProt P08922)
# T30 construct: purchased Millipore (KinaseProfiler service)
# Protocol: as §1
# [31] = target: T31, JNK2alpha2 (Homo sapiens, UniProt P45984)
# T31 construct: purchased Millipore, Inc. (KinaseProfiler service)
# Protocol: as §1
# [32] = target: T32, TLK2 (Homo sapiens, UniProt Q86UE8)
# T32 construct: purchased Millipore, Inc. (KinaseProfiler service)
# T32 sequence (Q86UE8 whole entry): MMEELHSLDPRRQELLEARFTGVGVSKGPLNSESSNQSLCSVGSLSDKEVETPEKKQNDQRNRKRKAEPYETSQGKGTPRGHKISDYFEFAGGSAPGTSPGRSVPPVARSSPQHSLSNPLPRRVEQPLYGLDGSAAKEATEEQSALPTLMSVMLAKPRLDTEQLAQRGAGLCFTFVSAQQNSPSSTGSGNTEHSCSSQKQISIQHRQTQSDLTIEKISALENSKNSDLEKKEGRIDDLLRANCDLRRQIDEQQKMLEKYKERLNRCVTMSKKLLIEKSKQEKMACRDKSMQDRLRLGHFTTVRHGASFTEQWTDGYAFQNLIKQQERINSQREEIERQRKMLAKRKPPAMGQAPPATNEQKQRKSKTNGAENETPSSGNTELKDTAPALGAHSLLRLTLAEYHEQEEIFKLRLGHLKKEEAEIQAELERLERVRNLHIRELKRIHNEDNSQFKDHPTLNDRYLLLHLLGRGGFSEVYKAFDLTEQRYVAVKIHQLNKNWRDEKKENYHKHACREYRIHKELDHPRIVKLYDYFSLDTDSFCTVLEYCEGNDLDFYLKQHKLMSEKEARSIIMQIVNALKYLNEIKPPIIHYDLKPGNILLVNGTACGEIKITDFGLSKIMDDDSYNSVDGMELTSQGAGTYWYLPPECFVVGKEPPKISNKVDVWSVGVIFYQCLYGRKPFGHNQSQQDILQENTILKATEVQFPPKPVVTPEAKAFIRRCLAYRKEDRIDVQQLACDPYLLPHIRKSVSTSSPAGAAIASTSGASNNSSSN
# Protocol: as §1
# [33] = target: T33, CDK2/cyclinA (Homo sapiens, UniProt P24941)
# T33 construct: purchased Millipore, Inc. (KinaseProfiler service)
# Protocol: as §1
# [34] = target: T34, DDR2 (Homo sapiens, UniProt Q16832)
# T34 construct: purchased Millipore, Inc. (KinaseProfiler service)
# T34 sequence (Q16832 22-855): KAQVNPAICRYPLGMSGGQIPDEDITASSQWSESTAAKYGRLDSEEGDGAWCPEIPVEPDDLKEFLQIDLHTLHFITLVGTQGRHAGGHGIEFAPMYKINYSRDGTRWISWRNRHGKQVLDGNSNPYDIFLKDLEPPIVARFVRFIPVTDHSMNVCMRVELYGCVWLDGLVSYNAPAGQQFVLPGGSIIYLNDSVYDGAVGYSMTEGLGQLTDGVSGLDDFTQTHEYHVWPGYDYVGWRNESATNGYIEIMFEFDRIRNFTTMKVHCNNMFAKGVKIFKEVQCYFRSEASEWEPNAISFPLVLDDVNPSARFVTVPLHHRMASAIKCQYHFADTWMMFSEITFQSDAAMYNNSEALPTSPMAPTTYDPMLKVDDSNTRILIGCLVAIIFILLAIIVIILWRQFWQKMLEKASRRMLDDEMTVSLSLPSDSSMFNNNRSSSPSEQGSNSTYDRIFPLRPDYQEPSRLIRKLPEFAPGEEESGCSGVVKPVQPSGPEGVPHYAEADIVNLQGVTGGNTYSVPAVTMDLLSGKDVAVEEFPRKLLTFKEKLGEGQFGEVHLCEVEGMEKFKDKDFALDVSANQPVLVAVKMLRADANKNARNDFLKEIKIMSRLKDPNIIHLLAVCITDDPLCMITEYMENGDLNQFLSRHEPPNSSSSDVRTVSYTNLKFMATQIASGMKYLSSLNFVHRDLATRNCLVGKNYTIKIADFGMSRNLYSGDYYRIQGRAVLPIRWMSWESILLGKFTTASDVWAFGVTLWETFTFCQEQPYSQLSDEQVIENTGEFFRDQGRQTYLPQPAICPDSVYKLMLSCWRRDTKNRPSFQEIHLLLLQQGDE
# Protocol: as §1
# [35] = target: T35, FAK (Homo sapiens, UniProt Q05397)
# T35 construct: purchased Millipore, Inc. (KinaseProfiler service)
# Protocol: as §1
# [36] = target: T36, EphA7 (Homo sapiens, UniProt Q15375)
# T36 construct: purchased Millipore, Inc. (KinaseProfiler service)
# Protocol: as §1
# [37] = target: T37, PDGFRalpha (Homo sapiens, UniProt P16234)
# T37 construct: purchased Millipore, Inc. (KinaseProfiler service)
# Protocol: as §1
# [38] = target: T38, SRPK1 (Homo sapiens, UniProt Q96SB4)
# T38 construct: purchased Millipore, Inc. (KinaseProfiler service)
# Protocol: as §1
# [39] = target: T39, MARK1 (Homo sapiens, UniProt Q9P0L2)
# T39 construct: purchased Millipore, Inc. (KinaseProfiler service)
# Protocol: as §1
# [40] = target: T40, PKCeta (Homo sapiens, UniProt P24723)
# T40 construct: purchased Millipore, Inc. (KinaseProfiler service)
# Protocol: as §1
# [41] = target: T41, SGK2 (Homo sapiens, UniProt Q9HBY8)
# T41 construct: purchased Millipore, Inc. (KinaseProfiler service)
# Protocol: as §1
# T1 sequence (O75582 whole entry): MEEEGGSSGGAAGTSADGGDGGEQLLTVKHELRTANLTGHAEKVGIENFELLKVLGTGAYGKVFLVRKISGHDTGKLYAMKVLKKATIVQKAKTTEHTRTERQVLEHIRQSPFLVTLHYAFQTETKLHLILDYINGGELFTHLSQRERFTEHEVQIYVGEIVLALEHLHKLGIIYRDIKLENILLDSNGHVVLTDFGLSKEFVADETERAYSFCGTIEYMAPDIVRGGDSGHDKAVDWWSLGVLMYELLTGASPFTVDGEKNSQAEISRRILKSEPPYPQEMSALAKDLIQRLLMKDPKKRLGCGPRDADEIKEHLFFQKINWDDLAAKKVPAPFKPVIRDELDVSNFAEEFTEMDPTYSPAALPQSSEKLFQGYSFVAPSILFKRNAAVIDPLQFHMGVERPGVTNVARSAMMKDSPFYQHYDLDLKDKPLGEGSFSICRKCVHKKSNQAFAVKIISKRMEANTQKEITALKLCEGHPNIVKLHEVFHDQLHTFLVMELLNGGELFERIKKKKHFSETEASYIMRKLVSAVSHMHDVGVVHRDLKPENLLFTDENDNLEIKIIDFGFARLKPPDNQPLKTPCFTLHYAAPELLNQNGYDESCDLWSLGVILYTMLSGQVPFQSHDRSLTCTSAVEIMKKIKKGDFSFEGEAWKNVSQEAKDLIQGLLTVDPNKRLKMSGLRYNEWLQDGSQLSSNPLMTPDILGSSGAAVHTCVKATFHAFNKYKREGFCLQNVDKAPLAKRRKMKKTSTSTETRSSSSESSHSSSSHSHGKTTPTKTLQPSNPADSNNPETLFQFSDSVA
smiles,measurement,setting,value
"COCCN1C[C@@H](NC(=O)Nc2c(-c3ccccc3)nc3c(C)nccn23)[C@H](c2ccc(F)c(F)c2)C1 [Example 20, 1-((3S,4R)-4-(3,4-difluorophenyl)-1-(2-methoxyethyl)pyrrolidin-3-yl)-3-(8-methyl-2-phenylimidazo[1,2-a]pyrazin-3-yl)urea]",Avg. POC,[1],121 POC
same,Avg. POC,[2],103 POC
same,Avg. POC,[3],118.5 POC
same,Avg. POC,[4],99 POC
same,Avg. POC,[5],109.5 POC
same,Avg. POC,[6],104.5 POC
same,Avg. POC,[7],104 POC
same,Avg. POC,[8],104.5 POC
same,Avg. POC,[9],105 POC
same,Avg. POC,[10],109 POC
same,Avg. POC,[11],147 POC
same,Avg. POC,[12],88.5 POC
same,Avg. POC,[13],99 POC
same,Avg. POC,[14],111 POC
same,Avg. POC,[15],97.5 POC
same,Avg. POC,[16],99 POC
same,Avg. POC,[17],100.5 POC
same,Avg. POC,[18],101.5 POC
same,Avg. POC,[19],98 POC
same,Avg. POC,[20],107.5 POC
same,Avg. POC,[21],103 POC
same,Avg. POC,[22],103.5 POC
same,Avg. POC,[23],117 POC
same,Avg. POC,[24],104 POC
same,Avg. POC,[25],93 POC
same,Avg. POC,[26],103.5 POC
same,Avg. POC,[27],106.5 POC
same,Avg. POC,[28],107 POC
same,Avg. POC,[29],112 POC
same,Avg. POC,[30],95.5 POC
same,Avg. POC,[31],107.5 POC
same,Avg. POC,[32],105 POC
same,Avg. POC,[33],112 POC
same,Avg. POC,[34],106 POC
same,Avg. POC,[35],109.5 POC
same,Avg. POC,[36],104.5 POC
same,Avg. POC,[37],105.5 POC
same,Avg. POC,[38],113.5 POC
same,Avg. POC,[39],103.5 POC
same,Avg. POC,[40],105.5 POC
same,Avg. POC,[41],105 POC
